In patent US20220411419A1, “SMALL MOLECULE MODULATORS OF MHC-I” (RetroVirox, Inc., priority 2018, published 2022):

What was measured:
in vitro = details: human, uninfected SupT1 cells
[1] = system: downmodulation of MHC-I molecules expressed on the surface of HIV infected SupT1 cells; test: cells; details: for EC50: Human immunodeficiency virus 1, SUP-T1, read-out: EC50 for inhibition of MHC-I downmodulation utilizing the R1 parameter; for activity at 100 µM: Human immunodeficiency virus 1, SUP-T1, read-out: R1 @ 100 μM (R1 value for MHC-I downmodulation as % of the vehicle control)

SMILES | CC50 at 48 h (in vitro) [µM] | EC50 [1] [µM] | CC50 (in vitro) [µM] | activity at 100 µM [1] [%]
Cc1nc(NC(=O)COc2cccc3c2OC(C)(C)C3)sc1C [Compound 185, 2-((2,2-Dimethyl-2,3-dihydrobenzofuran-7-yl)oxy)-N-(4,5-dimethylthiazol-2-yl)acetamide] | > 90 | 0.2 | – | –
CC1(C)Cc2cccc(OCC(=O)Nc3ccc(C4CC4)cn3)c2O1 [Compound 71, N-(5-Cyclopropylpyridin-2-yl)-2-((2,2-dimethyl-2,3-dihydrobenzofuran-7-yl)oxy)acetamide] | > 125 | 0.15 | – | –
CC(C)c1ccc(NC(=O)COc2cccc3c2OC(C)(C)C3)nn1 [Compound 87, 2-((2,2-Dimethyl-2,3-dihydrobenzofuran-7-yl)oxy)-N-(6-isopropylpyridazin-3-yl)acetamide] | > 100 | 0.58 | – | –
CC1(C)Cc2cccc(OCC(=O)Nc3nc(C4CC4)cs3)c2O1 [Compound 5, N-(4-Cyclopropylthiazol-2-yl)-2-((2,2-dimethyl-2,3-dihydrobenzofuran-7-yl)oxy)acetamide] | > 100 | 0.55 | – | –
Cc1cccc(NC(=O)COc2cccc3c2OC(C)(C)C3)n1 [Compound 8, 2-((2,2-Dimethyl-2,3-dihydrobenzofuran-7-yl)oxy)-N-(6-methylpyridin-2-yl) acetamide] | > 100 | 23 | – | –
CC1(C)Cc2cccc(CCC(=O)Nc3nc4c(F)cccc4s3)c2O1 [Compound 107, 3-(2,2-Dimethyl-2,3-dihydrobenzofuran-7-yl)-N-(4-fluorobenzo[d]thiazol-2-yl)propanamide] | > 100 | 0.37 | – | –
Cc1ccc(NC(=O)COc2cccc3c2OC(C)(C)C3)nc1 [Compound 177, 2-((2,2-Dimethyl-2,3-dihydrobenzofuran-7-yl)oxy)-N-(5-methylpyridin-2-yl) acetamide] | > 100 | 0.24 | – | –
Cc1csc(N(C(=O)COc2cccc3c2OC(C)(C)C3)c2ccc(Cl)cc2)n1 [Compound 59, N-(4-Chlorophenyl)-2-((2,2-dimethyl-2,3-dihydrobenzofuran-7-yl)oxy)-N-(4-methylthiazol-2-yl)acetamide] | > 100 | 0.86 | – | –
C=C(C)c1ccc(NC(=O)COc2cccc3c2OC(C)(C)C3)nn1 [Compound 86, 2-((2,2-Dimethyl-2,3-dihydrobenzofuran-7-yl)oxy)-N-(6-(prop-1-en-2-yl)pyridazin-3-yl)acetamide] | > 100 | 1.1 | – | –
CC1(C)Cc2cccc(OCC(=O)Nc3ccc(C(F)(F)F)nc3)c2O1 [Compound 12, 2-((2,2-Dimethyl-2,3-dihydrobenzofuran-7-yl)oxy)-N-(6-(trifluoromethyl)pyridin-3-yl)acetamide] | > 100 | > 25 | > 100 | 51
CC1(C)Cc2cccc(OCC(=O)Nc3ncnc4ccccc34)c2O1 [Compound 15, 2-((2,2-Dimethyl-2,3-dihydrobenzofuran-7-yl)oxy)-N-(quinazolin-4-yl) acetamide] | > 100 | > 25 | > 100 | 14
COc1ccc(N(C(=O)COc2cccc3c2OC(C)(C)C3)c2nc(C)cs2)cc1 [Compound 62, 2-((2,2-Dimethyl-2,3-dihydrobenzofuran-7-yl)oxy)-N-(4-methoxyphenyl)-N-(4-methylthiazol-2-yl)acetamide] | > 100 | 0.48 | – | –
Cc1nccc(NC(=O)COc2cccc3c2OC(C)(C)C3)n1 [Compound 29, 2-((2,2-Dimethyl-2,3-dihydrobenzofuran-7-yl)oxy)-N-(2-methylpyrimidin-4-yl)acetamide] | > 100 | > 25 | > 100 | 65
Cc1csc(N(C(=O)COc2cccc3c2OC(C)(C)C3)c2ccccc2Cl)n1 [Compound 61, N-(2-Chlorophenyl)-2-((2,2-dimethyl-2,3-dihydrobenzofuran-7-yl)oxy)-N-(4-methylthiazol-2-yl)acetamide] | > 100 | 2.17 | – | –
Cc1cnc(NC(=O)COc2cccc3c2OC(C)(C)C3)cn1 [Compound 9, 2-((2,2-Dimethyl-2,3-dihydrobenzofuran-7-yl)oxy)-N-(5-methylpyrazin-2-yl)acetamide] | > 125 | 0.5 | – | –
COc1cccc2sc(NC(=O)COc3cccc4c3OC(C)(C)C4)nc12 [Compound 146, 2-((2,2-Dimethyl-2,3-dihydrobenzofuran-7-yl)oxy)-N-(4-methoxybenzo[d]thiazol-2-yl)acetamide] | > 10 | 1.69 | – | –
CC1(C)Cc2cccc(OCC(=O)Nc3nc(C(=O)N4CCCC4)cs3)c2O1 [Compound 150, 2-((2,2-dimethyl-2,3-dihydrobenzofuran-7-yl)oxy)-N-(4-(pyrrolidine-1-carbonyl)thiazol-2-yl)acetamide] | > 90 | > 25 | > 90 | 47

SMILES | CC50 at 48 h (in vitro) [µM] | EC50 [1] [µM] | CC50 (in vitro) [µM] | activity at 100 µM [1] [%]
Cc1csc(N(C(=O)COc2cccc3c2OC(C)(C)C3)c2ccccc2)n1 [Compound 180, 2-((2,2-Dimethyl-2,3-dihydrobenzofuran-7-yl)oxy)-N-(4-methylthiazol-2-yl)-N-phenylacetamide] | > 100 | 0.028 | – | –
COc1ccccc1OCC(=O)Nc1nc2c(Br)cccc2s1 [Compound 193, N-(4-Bromobenzo[d]thiazol-2-yl)-2-(2-methoxyphenoxy)acetamide] | > 90 | > 25 | > 90 | 58
Cc1cccc(OCC(=O)N(C)c2nc3c(s2)CCCC3)c1C [Compound 114, 2-(2,3-Dimethylphenoxy)-N-methyl-N-(4,5,6,7-tetrahydrobenzo[d]thiazol-2-yl)acetamide] | > 125 | 1.2 | – | –
CC1(C)Cc2cccc(OCC(=O)Nc3nc4c(F)cccc4s3)c2O1 [Compound 147, 2-((2,2-Dimethyl-2,3-dihydrobenzofuran-7-yl)oxy)-N-(4-fluorobenzo[d]thiazol-2-yl)acetamide] | > 90 | 0.09 | – | –
CC1(C)Cc2cccc(OCC(=O)N(c3ccccc3)c3nc4ccccc4s3)c2O1 [Compound 98, N-(Benzo[d]thiazol-2-yl)-2-((2,2-dimethyl-2,3-dihydrobenzofuran-7-yl)oxy)-N-phenylacetamide] | > 90 | 29 | – | –
CCc1ccc(N(C)C(=O)COc2cccc3c2OC(C)(C)C3)nc1 [Compound 80, 2-((2,2-Dimethyl-2,3-dihydrobenzofuran-7-yl)oxy)-N-(5-ethylpyridin-2-yl)-N-methylacetamide] | > 125 | 4.6 | – | –
C=CCN(C(=O)COc1cccc2c1OC(C)(C)C2)c1nc(C)cs1 [Compound 63, N-Allyl-2-((2,2-dimethyl-2,3-dihydrobenzofuran-7-yl)oxy)-N-(4-methylthiazol-2-yl)acetamide] | > 100 | 0.19 | – | –
CC1(C)Cc2cccc(OCC(=O)Nc3nc(C(C)(C)C)cs3)c2O1 [Compound 23, N-(4-(tert-Butyl)thiazol-2-yl)-2-((2,2-dimethyl-2,3-dihydrobenzofuran-7-yl)oxy)acetamide] | > 100 | 4.4 | – | –
CC1(C)Cc2cccc(OCC(=O)Nc3ccc(Br)cn3)c2O1 [Compound 66, N-(5-Bromopyridin-2-yl)-2-((2,2-dimethyl-2,3-dihydrobenzofuran-7-yl)oxy) acetamide] | > 125 | 3.4 | – | –
C=Cc1ccc(NC(=O)COc2cccc3c2OC(C)(C)C3)nc1 [Compound 67, 2-((2,2-dimethyl-2,3-dihydrobenzofuran-7-yl)oxy)-N-(5-vinylpyridin-2-yl)acetamide] | > 125 | 2.2 | – | –
CC(C)(C)OC(=O)N1CCC(CNC(=O)c2csc(NC(=O)COc3cccc4c3OC(C)(C)C4)n2)C1 (centres unmarked) [Compound 155, tert-Butyl 3-((2-(2-((2,2-dimethyl-2,3-dihydrobenzofuran-7-yl)oxy)acetamido)thiazole-4-carboxamido)methyl)pyrrolidine-1-carboxylate] | > 90 | > 25 | > 90 | ≥ 100
CC1(C)Cc2cccc(OCC(=O)Nc3nc(C(=O)N4CC(CO)C4)cs3)c2O1 [Compound 153, 2-((2,2-Dimethyl-2,3-dihydrobenzofuran-7-yl)oxy)-N-(4-(3-(hydroxymethyl)azetidine-1-carbonyl)thiazol-2-yl)acetamide] | > 90 | > 25 | > 90 | 39
Cc1cc(NC(=O)COc2cccc3c2OC(C)(C)C3)ncc1Cl [Compound 18, N-(5-Chloro-4-methylpyridin-2-yl)-2-((2,2-dimethyl-2,3-dihydrobenzofuran-7-yl)oxy)acetamide] | > 125 | 18 | – | –
CC1(C)Cc2cccc(OC(C)(C)C(=O)Nc3nc4ccccc4s3)c2O1 [Compound 20, N-(Benzo[d]thiazol-2-yl)-2-((2,2-dimethyl-2,3-dihydrobenzofuran-7-yl)oxy)-2-methylpropanamide] | > 90 | > 30 | > 90 | 56
CN(C(=O)COc1cccc2c1OC(C)(C)C2)c1ccc(Cl)nn1 [Compound 81, N-(6-Chloropyridazin-3-yl)-2-((2,2-dimethyl-2,3-dihydrobenzofuran-7-yl)oxy)-N-methylacetamide] | > 125 | > 25 | > 125 | 67
CC1(C)Cc2cccc(OCC(=O)N(c3ccccc3)c3nc4c(s3)CCCC4)c2O1 [Compound 94, 2-((2,2-Dimethyl-2,3-dihydrobenzofuran-7-yl)oxy)-N-phenyl-N-(4,5,6,7-tetrahydrobenzo[d]thiazol-2-yl)acetamide] | > 125 | 0.0015 | – | –
CN(C(=O)COc1ccccc1C(F)(F)F)c1nc2c(s1)CCCC2 [Compound 160, N-Methyl-N-(4,5,6,7-tetrahydrobenzo[d]thiazol-2-yl)-2-(2-(trifluoromethyl)phenoxy)acetamide] | > 125 | 0.28 | – | –
